Measured values as given in patent US12077503B2, “Substituted cyclic amides and their use as herbicides” (FMC CORPORATION, priority 2015, dated 2024).

Assays:
Type in all cases: in vivo
[1] = test system: barnyardgrass (Echinochloa crus-galli); test: Test G Pre-Emergence Protocol; details: Echinochloa crus-galli, pre-emergence, 312 h, evaluated after 13 days; for pest or weed control at 15.625 g/ha: 15.625 g ai/ha, read-out: Barnyard grass damage rating (100=total damage to plant; 0=no damage to plant); for pest or weed control at 62.5 g/ha: 62.5 g ai/ha, 100=total damage to plant, 0=no damage to plant, read-out: plant damage rating, Barnyardgrass; for pest or weed control at 250 g/ha: 250 g ai/ha, read-out: Barnyardgrass damage rating (100=total damage to plant; 0=no damage to plant)
How it was run: (§1)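 Test compound in 0.5% Tween 20 acetone/water (50:50) was applied at three rates (15.625, 62.5, 250 g/ha) to soil sown one day earlier. After 13 days plants were scored for injury, where 0 means unaffected and 100 means completely damaged.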

[2] = test system: corn (Zea mays); test: Test G Pre-Emergence Protocol; details: Zea mays, pre-emergence, 312 h, evaluated after 13 days; for plant injury at 15.625 g/ha: 15.625 g ai/ha; for plant injury at 15.625 g/ha / plant injury at 250 g/ha: read-out: Corn damage rating (100=total damage to plant; 0=no damage to plant); for plant injury at 62.5 g/ha: 62.5 g ai/ha, 100=total damage to plant, 0=no damage to plant, read-out: plant damage rating, Corn; for plant injury at 250 g/ha: 250 g ai/ha
How it was run: as §1

[3] = test system: giant foxtail (Setaria faberi); test: Test G Pre-Emergence Protocol; details: Setaria faberi, pre-emergence, 312 h, evaluated after 13 days; for pest or weed control at 15.625 g/ha: 15.625 g ai/ha; for pest or weed control at 15.625 g/ha / pest or weed control at 250 g/ha: read-out: Foxtail, Giant damage rating (100=total damage to plant; 0=no damage to plant); for pest or weed control at 62.5 g/ha: 62.5 g ai/ha, 100=total damage to plant, 0=no damage to plant, read-out: plant damage rating, Foxtail, Giant; for pest or weed control at 250 g/ha: 250 g ai/ha
How it was run: as §1

[4] = test system: ivy-leaved morning glory (Ipomoea hederacea); test: Test G Pre-Emergence Protocol; details: Ipomoea, pre-emergence, 312 h, evaluated after 13 days; for pest or weed control at 15.625 g/ha: 15.625 g ai/ha, read-out: Morning-glory, Ivy-leaved damage rating (100=total damage to plant; 0=no damage to plant); for pest or weed control at 62.5 g/ha: 62.5 g ai/ha, 100=total damage to plant, 0=no damage to plant, read-out: plant damage rating, Morningglory, Ivy-leaved; for pest or weed control at 250 g/ha: 250 g ai/ha, read-out: Morningglory, Ivy-leaved damage rating (100=total damage to plant; 0=no damage to plant)
How it was run: as §1

[5] = test system: redroot pigweed (Amaranthus retroflexus); test: Test G Pre-Emergence Protocol; details: Amaranthus retroflexus, pre-emergence, 312 h, evaluated after 13 days; for pest or weed control at 15.625 g/ha: 15.625 g ai/ha; for pest or weed control at 15.625 g/ha / pest or weed control at 250 g/ha: read-out: Pigweed, Redroot damage rating (100=total damage to plant; 0=no damage to plant); for pest or weed control at 62.5 g/ha: 62.5 g ai/ha, 100=total damage to plant, 0=no damage to plant, read-out: plant damage rating, Pigweed, Redroot; for pest or weed control at 250 g/ha: 250 g ai/ha
How it was run: as §1

[6] = test system: velvetleaf (Abutilon theophrasti); test: Test G Pre-Emergence Protocol; details: Abutilon theophrasti, pre-emergence, 312 h, evaluated after 13 days; for pest or weed control at 15.625 g/ha: 15.625 g ai/ha; for pest or weed control at 15.625 g/ha / pest or weed control at 250 g/ha: read-out: Velvetleaf damage rating (100=total damage to plant; 0=no damage to plant); for pest or weed control at 62.5 g/ha: 62.5 g ai/ha, 100=total damage to plant, 0=no damage to plant, read-out: plant damage rating, Velvetleaf; for pest or weed control at 250 g/ha: 250 g ai/ha
How it was run: as §1

[7] = test system: barnyardgrass (Echinochloa crus-galli); test: Test G Post-Emergence Protocol; details: Echinochloa crus-galli, post-emergence, 312 h; for pest or weed control at 15.625 g/ha: 15.625 g ai/ha, evaluated after 13 days (100=total damage to plant; 0=no damage to plant), read-out: Barnyardgrass damage rating; for pest or weed control at 62.5 g/ha: 62.5 g ai/ha, read-out: Barnyardgrass damage rating (100=total damage to plant; 0=no damage to plant); for pest or weed control at 62.5 g/ha / pest or weed control at 250 g/ha: evaluated after 13 days; for pest or weed control at 250 g/ha: 250 g ai/ha, read-out: damage to plant, Barnyardgrass (100=total damage to plant; 0=no damage to plant)
How it was run: (§2)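 Sow in soil; grow 8 d (24/16 °C, 14 h light, 65% humidity); spray 15.625/62.5/250 g/ha in acetone:water 50:50 + 0.5% Tween 20; grow on, water twice daily; score damage 0–100 at 13 d.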

[8] = test system: corn (Zea mays); test: Test G Post-Emergence Protocol; details: Zea mays, post-emergence, 312 h; for plant injury at 15.625 g/ha: 15.625 g ai/ha, evaluated after 13 days (100=total damage to plant; 0=no damage to plant), read-out: Corn damage rating; for plant injury at 62.5 g/ha: 62.5 g ai/ha, read-out: Corn damage rating (100=total damage to plant; 0=no damage to plant); for plant injury at 62.5 g/ha / plant injury at 250 g/ha: evaluated after 13 days; for plant injury at 250 g/ha: 250 g ai/ha, read-out: damage to plant, Corn (100=total damage to plant; 0=no damage to plant)
How it was run: as §2

[9] = test system: giant foxtail (Setaria faberi); test: Test G Post-Emergence Protocol; details: Setaria faberi, post-emergence, 312 h; for pest or weed control at 15.625 g/ha: 15.625 g ai/ha, evaluated after 13 days (100=total damage to plant; 0=no damage to plant), read-out: Foxtail, Giant damage rating; for pest or weed control at 62.5 g/ha: 62.5 g ai/ha, read-out: Foxtail, Giant damage rating (100=total damage to plant; 0=no damage to plant); for pest or weed control at 62.5 g/ha / pest or weed control at 250 g/ha: evaluated after 13 days; for pest or weed control at 250 g/ha: 250 g ai/ha, read-out: damage to plant, Foxtail, Giant (100=total damage to plant; 0=no damage to plant)
How it was run: as §2

[10] = test system: ivy-leaved morning glory (Ipomoea hederacea); test: Test G Post-Emergence Protocol; details: Ipomoea, post-emergence, 312 h; for pest or weed control at 15.625 g/ha: 15.625 g ai/ha, evaluated after 13 days (100=total damage to plant; 0=no damage to plant), read-out: Morningglory, Ivy-leaved damage rating; for pest or weed control at 62.5 g/ha: 62.5 g ai/ha, read-out: Morningglory, Ivy-leaved damage rating (100=total damage to plant; 0=no damage to plant); for pest or weed control at 62.5 g/ha / pest or weed control at 250 g/ha: evaluated after 13 days; for pest or weed control at 250 g/ha: 250 g ai/ha, read-out: damage to plant, Morningglory, Ivy-leaved (100=total damage to plant; 0=no damage to plant)
How it was run: as §2

[11] = test system: redroot pigweed (Amaranthus retroflexus); test: Test G Post-Emergence Protocol; details: Amaranthus retroflexus, post-emergence, 312 h; for pest or weed control at 15.625 g/ha: 15.625 g ai/ha, evaluated after 13 days (100=total damage to plant; 0=no damage to plant), read-out: Pigweed, Redroot damage rating; for pest or weed control at 62.5 g/ha: 62.5 g ai/ha, read-out: Pigweed, Redroot damage rating (100=total damage to plant; 0=no damage to plant); for pest or weed control at 62.5 g/ha / pest or weed control at 250 g/ha: evaluated after 13 days; for pest or weed control at 250 g/ha: 250 g ai/ha, read-out: damage to plant, Pigweed, Redroot (100=total damage to plant; 0=no damage to plant)
How it was run: as §2

[12] = test system: velvetleaf (Abutilon theophrasti); test: Test G Post-Emergence Protocol; details: Abutilon theophrasti, post-emergence, 312 h; for pest or weed control at 15.625 g/ha: 15.625 g ai/ha, evaluated after 13 days (100=total damage to plant; 0=no damage to plant), read-out: Velvetleaf damage rating; for pest or weed control at 62.5 g/ha: 62.5 g ai/ha, read-out: Velvetleaf damage rating (100=total damage to plant; 0=no damage to plant); for pest or weed control at 62.5 g/ha / pest or weed control at 250 g/ha: evaluated after 13 days; for pest or weed control at 250 g/ha: 250 g ai/ha, read-out: damage to plant, Velvetleaf (100=total damage to plant; 0=no damage to plant)
How it was run: as §2

| SMILES | pest or weed control at 15.625 g/ha [1] [%] | pest or weed control at 62.5 g/ha [1] [%] | pest or weed control at 250 g/ha [1] [%] | plant injury at 15.625 g/ha [2] [%] | plant injury at 62.5 g/ha [2] [%] | plant injury at 250 g/ha [2] [%] | pest or weed control at 15.625 g/ha [3] [%] | pest or weed control at 62.5 g/ha [3] [%] | pest or weed control at 250 g/ha [3] [%] | pest or weed control at 15.625 g/ha [4] [%] | pest or weed control at 62.5 g/ha [4] [%] | pest or weed control at 250 g/ha [4] [%] | pest or weed control at 15.625 g/ha [5] [%] | pest or weed control at 62.5 g/ha [5] [%] | pest or weed control at 250 g/ha [5] [%] | pest or weed control at 15.625 g/ha [6] [%] | pest or weed control at 62.5 g/ha [6] [%] | pest or weed control at 250 g/ha [6] [%] | pest or weed control at 15.625 g/ha [7] [%] | pest or weed control at 62.5 g/ha [7] [%] | further results |
| --- | --- | --- | --- | --- | --- | --- | --- | --- | --- | --- | --- | --- | --- | --- | --- | --- | --- | --- | --- | --- | --- |
| CN1C[C@@H](c2ccc(C(F)(F)F)cc2)[C@H](C(=O)Nc2ccncc2Cl)C1=O (racemic) [Compound 1608] | 0 | 0 | 0 | 0 | 0 | 0 | 0 | 0 | 0 | 0 | 0 | 0 | 0 | 10 | 20 | 0 | 0 | 0 | 0 | 10 | pest or weed control at 250 g/ha [7]: 10%; plant injury at 15.625 g/ha [8]: 0%; plant injury at 62.5 g/ha [8]: 10%; plant injury at 250 g/ha [8]: 20%; pest or weed control at 15.625 g/ha [9]: 0%; pest or weed control at 62.5 g/ha [9]: 10%; pest or weed control at 250 g/ha [9]: 60%; pest or weed control at 15.625 g/ha [10]: 40%; pest or weed control at 62.5 g/ha [10]: 30%; pest or weed control at 250 g/ha [10]: 40%; pest or weed control at 15.625 g/ha [11]: 0%; pest or weed control at 62.5 g/ha [11]: 10%; pest or weed control at 250 g/ha [11]: 20%; pest or weed control at 15.625 g/ha [12]: 0%; pest or weed control at 62.5 g/ha [12]: 0%; pest or weed control at 250 g/ha [12]: 0% |
| CN1C[C@@H](c2ccc(C(F)(F)F)cc2)[C@H](C(=O)Nc2cc(C(F)(F)F)[nH]n2)C1=O (racemic) [Compound 1530] | 0 | 0 | 0 | 0 | 0 | 0 | 0 | 0 | 0 | 0 | 0 | 0 | 0 | 0 | 0 | 0 | 0 | 0 | 0 | 0 | pest or weed control at 250 g/ha [7]: 0%; plant injury at 15.625 g/ha [8]: 0%; plant injury at 62.5 g/ha [8]: 0%; plant injury at 250 g/ha [8]: 0%; pest or weed control at 15.625 g/ha [9]: 0%; pest or weed control at 62.5 g/ha [9]: 0%; pest or weed control at 250 g/ha [9]: 0%; pest or weed control at 15.625 g/ha [10]: 0%; pest or weed control at 62.5 g/ha [10]: 0%; pest or weed control at 250 g/ha [10]: 0%; pest or weed control at 15.625 g/ha [11]: 0%; pest or weed control at 62.5 g/ha [11]: 0%; pest or weed control at 250 g/ha [11]: 0%; pest or weed control at 15.625 g/ha [12]: 0%; pest or weed control at 62.5 g/ha [12]: 0%; pest or weed control at 250 g/ha [12]: 0% |
